One test deals with T1, TLR8 (Homo sapiens, UniProt Q9NR97).
T1 construct: host or cells: HEK-Blue cells (human HEK) co-expressing TLR8 and an NF-kB/AP1-inducible SEAP reporter
T1 sequence (Q9NR97 27-1041): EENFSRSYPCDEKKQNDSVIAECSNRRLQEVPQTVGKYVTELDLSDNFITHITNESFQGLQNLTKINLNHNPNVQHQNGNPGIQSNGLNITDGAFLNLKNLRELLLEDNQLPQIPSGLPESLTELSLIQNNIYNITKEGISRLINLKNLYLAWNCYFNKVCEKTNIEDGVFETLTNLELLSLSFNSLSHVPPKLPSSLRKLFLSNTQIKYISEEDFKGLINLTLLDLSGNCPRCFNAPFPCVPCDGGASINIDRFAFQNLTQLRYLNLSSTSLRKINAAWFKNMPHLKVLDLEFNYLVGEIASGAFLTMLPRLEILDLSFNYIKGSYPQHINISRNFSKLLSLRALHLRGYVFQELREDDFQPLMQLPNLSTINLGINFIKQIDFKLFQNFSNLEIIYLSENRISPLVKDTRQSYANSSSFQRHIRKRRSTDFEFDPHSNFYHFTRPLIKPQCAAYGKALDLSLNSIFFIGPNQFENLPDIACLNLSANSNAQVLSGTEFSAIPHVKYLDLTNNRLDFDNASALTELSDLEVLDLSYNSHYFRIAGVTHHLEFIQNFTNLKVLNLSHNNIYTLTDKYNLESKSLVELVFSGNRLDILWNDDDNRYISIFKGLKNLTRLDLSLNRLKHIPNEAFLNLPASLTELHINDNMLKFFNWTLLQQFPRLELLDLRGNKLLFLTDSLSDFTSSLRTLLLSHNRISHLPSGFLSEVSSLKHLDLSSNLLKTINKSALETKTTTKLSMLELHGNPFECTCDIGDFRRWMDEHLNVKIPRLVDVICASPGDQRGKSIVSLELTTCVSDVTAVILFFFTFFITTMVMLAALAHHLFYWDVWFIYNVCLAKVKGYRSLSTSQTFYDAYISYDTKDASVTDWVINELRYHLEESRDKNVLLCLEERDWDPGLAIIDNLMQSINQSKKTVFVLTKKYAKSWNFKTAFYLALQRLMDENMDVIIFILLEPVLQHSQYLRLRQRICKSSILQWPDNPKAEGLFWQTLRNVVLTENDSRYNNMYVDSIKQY
The experiment in a line: In vitro human TLR8 binding reporter assay (HEK-Blue, NF-kB/AP1-inducible SEAP). The following applies: activity range symbols. It is filed as cell-based. The method, boiled down:
(§1)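 Reporter cells are plated at 15,000 per well and rested 24 h. Next day, test compounds or DMSO are dispensed, followed by 18 h incubation at 37 °C, 5% CO2.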
Background: A reporter such as luciferase makes a cellular process visible.

For a further test, the target named is T2, TLR7 (Homo sapiens, UniProt Q9NYK1).
T2 construct: host or cells: HEK-Blue cells (human HEK) co-expressing TLR7 and an NF-kB/AP1-inducible SEAP reporter
T2 sequence (Q9NYK1 27-1049): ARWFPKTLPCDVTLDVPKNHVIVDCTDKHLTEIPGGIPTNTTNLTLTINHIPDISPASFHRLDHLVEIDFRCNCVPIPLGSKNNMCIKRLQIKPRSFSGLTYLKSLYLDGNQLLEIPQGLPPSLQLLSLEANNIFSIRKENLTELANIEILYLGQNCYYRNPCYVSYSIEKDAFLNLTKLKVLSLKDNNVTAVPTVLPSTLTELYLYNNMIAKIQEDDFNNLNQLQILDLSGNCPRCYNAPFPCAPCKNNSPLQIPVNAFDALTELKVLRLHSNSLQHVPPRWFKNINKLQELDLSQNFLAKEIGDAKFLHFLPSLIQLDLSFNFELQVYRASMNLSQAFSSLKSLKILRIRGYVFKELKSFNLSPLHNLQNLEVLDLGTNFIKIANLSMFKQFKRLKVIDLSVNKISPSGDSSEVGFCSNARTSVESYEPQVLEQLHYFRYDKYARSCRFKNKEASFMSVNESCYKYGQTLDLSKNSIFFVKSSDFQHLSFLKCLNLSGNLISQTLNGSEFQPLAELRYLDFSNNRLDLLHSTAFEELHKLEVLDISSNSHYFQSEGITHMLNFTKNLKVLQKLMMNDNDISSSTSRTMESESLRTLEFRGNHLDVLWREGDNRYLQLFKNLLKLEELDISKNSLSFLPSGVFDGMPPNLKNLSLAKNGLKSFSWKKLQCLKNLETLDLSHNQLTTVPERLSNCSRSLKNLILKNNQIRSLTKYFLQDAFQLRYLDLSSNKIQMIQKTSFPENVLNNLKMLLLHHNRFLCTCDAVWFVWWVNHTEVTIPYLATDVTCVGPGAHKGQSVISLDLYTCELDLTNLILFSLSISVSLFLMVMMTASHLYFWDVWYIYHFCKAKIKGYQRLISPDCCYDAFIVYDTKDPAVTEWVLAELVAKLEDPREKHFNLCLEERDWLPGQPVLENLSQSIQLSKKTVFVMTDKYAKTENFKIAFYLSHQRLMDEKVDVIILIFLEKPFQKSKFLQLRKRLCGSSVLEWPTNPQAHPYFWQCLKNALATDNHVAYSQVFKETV
The experiment in a line: In vitro human TLR7 binding reporter assay (HEK-Blue, NF-kB/AP1-inducible SEAP). To be noted: activity range symbols. It is filed as cell-based. The gist of the method: as §1

Drawing on US12351580B2, “NLRP3 modulators” (Innate Tumor Immunity, Inc., priority 2017, dated 2025), this text covers EC50 for two compounds.

For orientation: EC50 means the concentration that produces a half-maximal response. `CCC(=O)N(CC)Cc1nc2c(N)nc3cc(-n4cccn4)ccc3c2n1CC` [Compound 481, N-{[4-amino-1-ethyl-7-(1H-pyrazol-1-yl)-1H-imidazo[4,5-c]quinolin-2-yl]methyl}-N-ethylpropanamide]: the EC50 on TLR8 and on TLR7 was over 100 µM each time.

With `CCN(Cc1nc2c(N)nc3cc(-c4cccs4)ccc3c2n1CCO)C(C)=O` [Compound 482, N-{[4-amino-1-(2-hydroxyethyl)-7-(thiophen-2-yl)-1H-imidazo[4,5-c]quinolin-2-yl]methyl}-N-ethylacetamide], the EC50 on TLR8 and at TLR7 was over 100 µM each time.
